Laboratory results: patent US8778643B2, “Methods for increasing lipid levels and producing triacylglycerols in algae” (priority 2012, dated 2014)
Where two headings read alike, the source gives them in different places.

Columns and labels:
[1] = system: Nannochloropsis salina; assay: 500 mL batch culture: growth, dry weight and lipid extract (gravimetric); assay type: cell-based; conditions: for increase in lipid levels: batch cultures; for Lipid productivity / Lipid content / Change in Lipids / Specific Growth Rate: N. salina, 500 mL culture; for Lipid content: dried lipid extract per dry biomass; for Change in Lipids: gravimetric, relative to averaged control without DMSO; for Specific Growth Rate: mid-exponential growth phase
Procedure: (§1) Batch cultures were grown in 500 mL Pyrex media bottles with stirring and air bubbling (homemade manifold with Petco air pump, 2-4% CO2). Incoming air was sterile filtered by Polyvent 4 disposable filters (Whatman, Kent, UK). […] To minimize bacterial contamination, all equipment and materials were autoclaved and media was added to flask in a Purifier Vertical Clean bench (Labconco, Kansas City, Mo.). […] The amount of DMSO is standardized for all experiments to 0.4%.
(§2) For all compound cultures, the 2 mL DMSO stock solution was added to media (without algae) first and mixed well. Control cultures were grown without DMSO. DMSO controls consisted of 0.04-1.0% DMSO. After the addition of algae and media, the container was plugged with a bug stopper vented closure cap and mixed thoroughly. Absorbance is measured immediately for Day 0 analysis. Afterward, absorbance was measured every 1-2 days with a cuvette (1 mL volume) on the Thermo Scientific Genesys 10S V is Spectrophotometer (ThermoFisher, San Jose) at 680 nm.
(§3) Batch cultures were also repeated in triplicate and compared to a control culture grown at the same time. Algae were harvested and lipids were extracted for gravimetric analysis.
Cultures were harvested at day 6 in stationary phase. Cultures were pelleted, lyophilized, and extracted side-by-side. The experiment was performed in triplicate.
The nonpolar algal extracts were harvested from 500 mL cultures when indicated on growth curves, a minimum of 3 days into stationary phase. […] Cells were crushed and nonpolar lipids were extracted by sonication (Fisher Scientific Model 120 Sonic Dismembrator, ThermoFisher, San Jose) for 1 minute in chloroform, followed by chloroform-methanol extractions, washed with PBS butter, and dried under vacuum.^55-60 The crude non-polar algae extracts were then analyzed by ^1H Nuclear Magnetic Resonance (^1H NMR) for verification of TAG presence and examination of the purity of the extract (determination of level of chlorophyll).
(§4) Cell density was monitored by measuring absorbance at 680 nm every 1-2 days.
(§5) 500-mL cultures were harvested 6 days into stationary phase based on absorbance values. Cells were concentrated by centrifugation and lyophilization to remove water. Nonpolar lipids were extracted by sonication and solvent (chloroform-methanol and PBS buffer). […] Changes in lipid levels for batch cultures were determined by crude lipid extract mass.

[2] = DPPH free radical scavenging activity; cited from earlier work
[3] = system: Nannochloropsis salina; conditions: for % Inc: increase of lipid production, best conc. 10 nM
[4] = system: Phaeodactylum tricornutum; assay: 500 mL batch culture: growth, dry weight and lipid extract (gravimetric); assay type: cell-based; conditions: P. tricornutum, 500 mL culture, 120 nM
Procedure: as §1, §2, §3
(§6) The nonpolar algal extracts were harvested from 500 mL cultures when indicated on growth curves, a minimum of 3 days into stationary phase.
as §4, §5

[5] = system: fatty acid and sterol synthesis; conditions: cited from earlier work
[6] = system: Nannochloris sp.; assay: Microplate assay: growth (absorbance 680 nm) and intracellular lipids (Nile Red fluorescence); assay type: cell-based; conditions: for Absorbance (percent increase) / Nile Red percent increase: initial microplate screen, relative to control; for % Lipid increase based on Nile red fluorescence intensity: (water), t=day 0; for Nile Red Fluorescence % Increase: initial screening, p<0.05
[7] = system: Nannochloropsis oculata; conditions: for Nile Red Fluorescence % Increase / % change in abs / % in NR fl: N. oculata; for Nile Red Fluorescence % Increase: compounds tested at 200 nM, initial screening, p<0.05
Procedure: Stock cultures were aerated by stirring with bubbling air (homemade manifold with Petco air pump, 2-4% CO2) or by orbital shaking (Thermo Scientific MAXQ 2000) at a constant speed of 150 rpm at 22±3° C. with a 16:8 hour light/dark cycle. Stocks were kept at stationary phase for use. Algae were prepared as dictated by culture center.
Compounds were selected based on reported biological activity in non-microalgae organisms. To ensure that compounds retained their quality, they were stored under advised conditions after purchasing from the manufacturer. Solutions of all assay compounds were prepared as 10 mM stock solutions by dissolving in DMSO in 2-dram amber vials and then stored in darkness −20° C. 96-well PCR plates were used to create a stock plate layout that was then transferred to the algae microplates. A plate map was used to distribute each compound to a well based on molecule name, collection number, and CAS number. For 20 μM and 200 nM assay plates, 10 mM compound stock in DMSO was diluted into plate maps of 5 mM and 50 μM assay stocks, respectively.
All materials for assay experiments were autoclaved before each use to maintain axenic algae cultures. Algae species were checked for homogeneity using a TS-100 light microscope (Nikon, Japan). […] Diluted stock solutions were made immediately prior to use for consistency and optimal plate growth. Cell density was measured on a Thermo Scientific Genesys 10S Vis Spectrophotometer (ThermoFisher, San Jose), using a 1 mL cuvette at 680 nm.
Plates were originally run in triplicate, before replicates were increased to quadruplicate, along with a separate control plate to compare growth. Due to extensive evaporation in exterior wells over time, our unique algae plate layout was designed to use the 60 interior wells out of 96 wells for the experiment. The 36 outer wells were filled with Millipore water and media to prevent evaporation and edge effects in the inner algae wells, as well as serve as blanks. The 60 wells with algae contained a total volume of 251 μL (100 μL of media+DMSO compound stock +150 μL dilute algae stock). For 20 μM and 200 nM assay plates, 10 mM compound stock in DMSO is diluted into plate maps of 5 mM and 50 μM assay stocks, respectively. […] Plates were parafilmed during growth to limit the amount of evaporation that can occur. Plates were numbered, and numerically ordered to ensure they got the same shaker space.
The shakers are kept at a constant shaking of 150 rpm. Ambient temperature is 22±3° C.

[8] = target: Cdk2/cyclin E (Homo sapiens, UniProt P24941); conditions: cited from earlier work
[9] = target: c-Jun N-terminal kinase; conditions: cited from earlier work
[10] = target: Cdk2/cyclin A (Homo sapiens, UniProt P24941); conditions: Cdk2/cyclin A; cited from earlier work
[11] = target: PKA (Homo sapiens, UniProt P17612); conditions: cited from earlier work
[12] = target: PKC; conditions: cited from earlier work
[13] = target: EGFR tyrosine kinase (Homo sapiens, UniProt P00533); conditions: cited from earlier work
[14] = system: Phaeodactylum tricornutum; assay: Microplate assay: growth (absorbance 680 nm) and intracellular lipids (Nile Red fluorescence); assay type: cell-based
[15] = target: phosphatidylinositol-specific phospholipase C (PI-PLC); conditions: cited from earlier work
[16] = target: histone lysine methyltransferase G9a (Homo sapiens, UniProt Q96KQ7); conditions: cited from earlier work
[17] = target: PTP1b (Homo sapiens, UniProt P18031); conditions: cited from earlier work
[18] = target: fatty acid amide hydrolase (Homo sapiens, UniProt O00519); conditions: cited from earlier work
[19] = system: MLCK; conditions: cited from earlier work
[20] = target: T1, PKA (rat liver catalytic subunit) (Rattus norvegicus, UniProt P27791); conditions: cited from earlier work
T1 construct: rat liver catalytic subunit; host or cells: rat liver

[21] = target: p70 S6 kinase activation; conditions: signaling that leads to p70 S6 kinase activation; cited from earlier work
[22] = system: CDK; conditions: CDKs; cited from earlier work
[23] = system: ERK signaling pathway; conditions: cited from earlier work
[24] = system: Nannochloropsis oculata; assay: Lipid composition of batch culture extracts (fatty acid saturation / PUFA by 1H NMR, MALDI-TOF, GC/MS); assay type: cell-based; conditions: N. oculata, 40 nM, n=1
[25] = system: Nannochloris sp.; assay: 500 mL batch culture: growth, dry weight and lipid extract (gravimetric); assay type: cell-based; conditions: Nannochloris sp., 500 mL culture, 40 nM
Procedure: as §1, §2, §3, §6, §4, §5

[26] = target: Diacylglycerol lipase; conditions: cited from earlier work
[27] = system: microalgae; assay: 500 mL batch culture (growth, gravimetric lipids), algae strain not stated; assay type: cell-based; conditions: 500 mL batch cultures (Table 30)
[28] = system: microsomal lipid peroxidation; conditions: cited from earlier work
[29] = gravimetric, relative to averaged control without DMSO
[30] = Nannochloris sp., compounds tested at 200 nM
[31] = Nannochloris sp., compounds tested at 20 μM
[32] = 40 μM, initial microplate screen, relative to control

Chain of fatty acid amide hydrolase (O00519 whole entry): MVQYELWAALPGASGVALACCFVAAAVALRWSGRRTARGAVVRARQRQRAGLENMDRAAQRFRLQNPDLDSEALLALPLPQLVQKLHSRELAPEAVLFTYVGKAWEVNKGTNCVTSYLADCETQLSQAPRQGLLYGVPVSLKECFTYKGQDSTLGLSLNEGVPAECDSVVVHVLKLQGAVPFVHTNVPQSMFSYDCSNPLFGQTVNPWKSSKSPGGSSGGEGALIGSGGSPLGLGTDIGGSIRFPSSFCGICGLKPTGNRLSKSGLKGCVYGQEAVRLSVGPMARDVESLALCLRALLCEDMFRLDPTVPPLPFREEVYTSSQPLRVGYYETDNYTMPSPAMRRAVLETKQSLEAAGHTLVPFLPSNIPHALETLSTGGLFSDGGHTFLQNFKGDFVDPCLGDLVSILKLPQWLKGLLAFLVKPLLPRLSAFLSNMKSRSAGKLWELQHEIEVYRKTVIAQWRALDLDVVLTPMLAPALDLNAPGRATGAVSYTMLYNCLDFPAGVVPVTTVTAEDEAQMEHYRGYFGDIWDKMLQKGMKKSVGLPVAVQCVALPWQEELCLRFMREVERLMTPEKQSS
Chain of PTP1b (P18031 whole entry, species assumed): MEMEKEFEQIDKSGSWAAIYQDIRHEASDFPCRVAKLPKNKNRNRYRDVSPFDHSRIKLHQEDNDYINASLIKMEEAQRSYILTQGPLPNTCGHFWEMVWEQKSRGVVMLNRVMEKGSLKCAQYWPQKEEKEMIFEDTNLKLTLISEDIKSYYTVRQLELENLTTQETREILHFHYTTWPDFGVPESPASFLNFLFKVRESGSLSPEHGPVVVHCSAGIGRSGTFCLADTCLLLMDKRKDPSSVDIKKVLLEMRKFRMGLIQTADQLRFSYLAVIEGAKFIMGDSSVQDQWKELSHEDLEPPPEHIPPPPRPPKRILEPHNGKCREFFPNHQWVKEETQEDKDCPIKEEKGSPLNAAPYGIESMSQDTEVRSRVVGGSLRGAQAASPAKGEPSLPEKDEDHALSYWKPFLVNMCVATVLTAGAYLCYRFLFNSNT
Chain of EGFR tyrosine kinase (P00533 25-1210): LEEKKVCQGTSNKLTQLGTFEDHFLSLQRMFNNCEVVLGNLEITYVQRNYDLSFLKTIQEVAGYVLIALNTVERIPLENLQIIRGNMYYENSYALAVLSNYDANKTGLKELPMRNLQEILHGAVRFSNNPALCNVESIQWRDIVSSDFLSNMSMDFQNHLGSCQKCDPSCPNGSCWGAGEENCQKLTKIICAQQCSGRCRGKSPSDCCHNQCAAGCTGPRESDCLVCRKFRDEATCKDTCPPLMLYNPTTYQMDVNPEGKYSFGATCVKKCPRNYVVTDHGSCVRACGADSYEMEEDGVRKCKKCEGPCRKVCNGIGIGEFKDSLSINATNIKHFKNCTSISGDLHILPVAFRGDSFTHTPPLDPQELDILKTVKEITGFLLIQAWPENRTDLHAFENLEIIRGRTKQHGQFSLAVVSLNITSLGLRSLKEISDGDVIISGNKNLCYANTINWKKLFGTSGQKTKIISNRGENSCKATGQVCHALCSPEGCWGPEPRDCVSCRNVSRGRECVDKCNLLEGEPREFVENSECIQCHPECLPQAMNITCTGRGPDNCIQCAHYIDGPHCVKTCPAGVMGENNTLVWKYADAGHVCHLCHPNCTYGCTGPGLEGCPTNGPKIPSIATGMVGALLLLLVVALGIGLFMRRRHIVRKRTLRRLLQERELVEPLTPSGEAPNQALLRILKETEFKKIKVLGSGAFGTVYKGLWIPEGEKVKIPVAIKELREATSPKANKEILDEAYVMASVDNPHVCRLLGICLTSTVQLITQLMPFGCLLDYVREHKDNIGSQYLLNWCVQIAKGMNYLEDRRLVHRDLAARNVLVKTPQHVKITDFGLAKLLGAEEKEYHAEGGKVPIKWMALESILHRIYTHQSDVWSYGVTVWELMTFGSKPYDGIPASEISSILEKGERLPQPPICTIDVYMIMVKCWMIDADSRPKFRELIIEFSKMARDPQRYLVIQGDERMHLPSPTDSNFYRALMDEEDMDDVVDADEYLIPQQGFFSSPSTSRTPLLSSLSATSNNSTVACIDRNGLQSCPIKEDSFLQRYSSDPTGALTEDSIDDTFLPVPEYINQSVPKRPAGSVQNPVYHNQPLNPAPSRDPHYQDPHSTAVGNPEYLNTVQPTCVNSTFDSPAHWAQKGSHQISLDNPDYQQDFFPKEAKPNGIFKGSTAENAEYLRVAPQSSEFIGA
Chain of histone lysine methyltransferase G9a (Q96KQ7 whole entry): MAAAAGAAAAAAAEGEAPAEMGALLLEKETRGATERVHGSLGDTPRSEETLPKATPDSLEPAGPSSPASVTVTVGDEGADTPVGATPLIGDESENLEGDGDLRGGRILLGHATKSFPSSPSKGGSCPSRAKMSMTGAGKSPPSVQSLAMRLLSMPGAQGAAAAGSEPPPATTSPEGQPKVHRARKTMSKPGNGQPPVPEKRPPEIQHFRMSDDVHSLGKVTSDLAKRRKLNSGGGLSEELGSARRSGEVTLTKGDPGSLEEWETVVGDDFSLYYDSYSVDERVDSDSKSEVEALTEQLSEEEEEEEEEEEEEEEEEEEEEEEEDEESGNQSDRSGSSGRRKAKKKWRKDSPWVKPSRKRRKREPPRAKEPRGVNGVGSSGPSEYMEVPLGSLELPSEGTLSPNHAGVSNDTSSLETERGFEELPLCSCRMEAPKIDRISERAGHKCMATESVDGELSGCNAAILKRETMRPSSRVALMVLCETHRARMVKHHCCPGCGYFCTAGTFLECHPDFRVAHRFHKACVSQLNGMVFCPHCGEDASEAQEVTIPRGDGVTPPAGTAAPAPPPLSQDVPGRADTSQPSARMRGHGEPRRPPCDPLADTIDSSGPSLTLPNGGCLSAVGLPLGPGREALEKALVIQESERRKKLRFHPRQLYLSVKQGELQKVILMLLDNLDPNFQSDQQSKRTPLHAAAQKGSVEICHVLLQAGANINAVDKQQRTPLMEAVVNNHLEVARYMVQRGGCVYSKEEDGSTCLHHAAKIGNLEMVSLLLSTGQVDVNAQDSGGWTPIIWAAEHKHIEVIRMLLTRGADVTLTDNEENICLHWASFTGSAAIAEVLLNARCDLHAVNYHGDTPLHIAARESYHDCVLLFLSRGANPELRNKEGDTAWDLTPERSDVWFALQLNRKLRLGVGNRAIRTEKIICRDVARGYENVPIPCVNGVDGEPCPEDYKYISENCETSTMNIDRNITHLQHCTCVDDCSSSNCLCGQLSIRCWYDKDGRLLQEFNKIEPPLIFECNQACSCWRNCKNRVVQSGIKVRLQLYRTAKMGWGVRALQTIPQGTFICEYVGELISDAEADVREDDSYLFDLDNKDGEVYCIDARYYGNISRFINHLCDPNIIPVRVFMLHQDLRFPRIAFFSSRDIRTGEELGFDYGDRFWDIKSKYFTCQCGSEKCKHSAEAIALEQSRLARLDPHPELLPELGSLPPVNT

With “2-tert-Butyl-4-hydroxyanisole and 3-tert-butyl-4-hydroxyanisole (mixture) [BHA]” the “increase in lipid levels” value ([1]; 4 nM) was 63%, the Lipid productivity ([1]; 4 nM) was 8.1 ± 0.6 mgL^−1day^−1 and the Lipid content ([1]; 4 nM) was 28.8 ± 11.4 % w/w. The “Change in Lipids” value ([1]; 4 nM) was 63%, the “Specific Growth Rate” value ([1]; 4 nM) was 0.23 ± 0.002 day⁻¹ and the IC50 [2] was 43000 nM. For the same compound, the “% Inc” value ([3]; N. salina) was 290.14%.
For `NC(=O)c1ncn([C@@H]2O[C@H](COP(=O)(O)O)[C@@H](O)[C@H]2O)c1N` [AICAR, [(2R,3S,4R,5R)-5-(4-Carbamoyl-5-amino-imidazol-1-yl)-3,4-dihydroxyoxolan-2-yl]methyl dihydrogen phosphate], the Lipid productivity [4] was 7.0 ± 0.9 mgL^−1day^−1, the Lipid content ([4]; dried lipid extract per dry biomass) was 22.7 ± 1.3 % w/w and the “Change in Lipids” value [4, 29] was 45%. The “Specific Growth Rate” value ([4]; mid-exponential growth phase) was 0.34 ± 0.04 day⁻¹ and the “inhibitor of fatty acid and sterol synthesis (concentration)” value [5] was “synthesis (0.5 mM), inactivates HMG-CoA reductase”.
With `CCCCc1c(-c2ccc(O)cc2)[nH]c2nccnc12` [Aloisine A, 7-n-Butyl-6-(4-hydroxyphenyl)[5H]pyrrolo[2,3-b]pyrazine] the “Absorbance (percent increase)” value ([6]; 200 nM) was −5.4%, the “Nile Red percent increase” value ([6]; 200 nM) was 125.9% and the “Absorbance (percent increase)” value ([6]; 20 μM) was −12.6%. The “Nile Red percent increase” value ([6]; 20 μM) was 84.1%, the “Nile Red Fluorescence % Increase” value [7] was 117.7% and the IC50 [8] was 400 nM. For the same compound, the IC50 [9] was 3000 to 10000 nM and the IC50 [10] was 120 nM.
For `CN(C)CCCn1cc(C2=C(c3c[nH]c4ccccc34)C(=O)NC2=O)c2ccccc21` [Bisindolylmaleimide, 2-[1-(3-Dimethylaminopropyl)-1H-indol-3-yl]-3-(1H-indol-3-yl)-maleimide], the Ki [11] is listed as 2000 nM, the “% Increase based on Nile Red Fluorescence Intensity” value (“% Increase based” for short) ([6]; 0 h, 1.3 µM) is listed as 70% and the “% Lipid increase based on Nile red fluorescence intensity” value ([6]; Nannochloris sp., 49 nM) is listed as 141%. The Ki [12] was 10 nM.
In the case of `O=C(/C=C/c1ccc(O)c(O)c1)c1ccc(O)cc1O` [Butein, (E)-1-(2,4-dihydroxyphenyl)-3-(3,4-dihydroxyphenyl)prop-2-en-1-one], the IC50 [13] is given as 65000 nM, the “% increase (lipid production)” value ([14]; 54 nM-40 μM (H2O)) is given as 1-116 (H2O) % and the “% increase (lipid production)” value ([14]; 40 μM) is given as 14%.
For `CCCCCCCCCCCCCCCCCCOCC(COP(=O)([O-])OCC[N+](C)(C)C)OC` (stereo not shown) [ET-18-OCH3, 2-Methoxy-3-(octadecyloxy)propyl 2-(trimethylammonio)ethyl phosphate], the “% change in abs” value ([7]; 10 μM) was 5.73%, the “% in NR fl” value ([7]; 10 μM) was 50.05% and the “% change in abs” value ([7]; 40 μM) was −5.90%. For the same compound, the “% in NR fl” value ([7]; 40 μM) was 57.25% and the IC50 [15] was 9600 nM.
For `COC(=O)C=Cc1cc(O)ccc1O` [Erbstatin analog, 2,5-Dihydroxymethylcinnamate], the IC50 [16] is listed as 2820 nM, the “Absorbance (percent increase)” value ([6]; 200 nM) is listed as −7.6% and the “Nile Red percent increase” value ([6]; 200 nM) is listed as 90.7%. The “Nile Red Fluorescence % Increase” value [6, 30] was 80.2% and the “Nile Red Fluorescence % Increase” value [6, 31] was 40.5%.
For `CCN(NO)C1=CC(=O)C(=O)C=C1` [Ethyl 3,4-dephostatin, 4-[(hydroxyamino)-ethylamino]cyclohexa-3,5-diene-1,2-dione], the “% increase (lipid production)” value ([7]; 0.0252-165.6, concentrations giving an increase: (none)) is listed as “(none)”, the IC50 [17] is listed as 3200 nM and the “Absorbance (percent increase)” value [14, 32] is listed as −2.4%. For the same compound, the “Nile Red percent increase” value [14, 32] was 115.0%, the “% increase (lipid production)” value ([14]; 0.0252-165.6 nM (H2O)) was 8-106% and the “% increase (lipid production)” value ([14]; 2-18.4 nM) was 3-67%. The “% increase (lipid production)” value ([3]; 0.0252-165.6 nM (H2O)) was 8-61% and the “% increase (lipid production)” value ([3]; 0.0252-165.6 nM, not marked H2O) was 8-20%.
For `CCCCNC(=O)Oc1ccc(OCc2ccccc2)cc1` [FAAH Inhibitor I, 4-Benzyloxyphenyl-n-butylcarbamate], the “% Lipid increase based on Nile red fluorescence intensity” value ([6]; Nannochloris sp., 0.6 nM) was 189%, the “% Increase based” value ([6]; Nannochloris sp., 0.6 nM, dissolved in water, added t=day 0) was 189% and the “% Increase based” value ([6]; Nannochloris sp., 49 nM, dissolved in water, added t=day 0) was 160%. The “% Increase based” value ([6]; Nannochloris sp., 440 nM, dissolved in water, added t=day 0) was 161%, the “% Increase based” value ([6]; Nannochloris sp., 1.3 μM, dissolved in water, added t=day 0) was 152% and the IC50 [18] was 396 nM.
In the case of `Oc1cc(O)cc(/C=C/c2ccc(O)c(O)c2)c1` [Piceatannol, 3,3′,4,5′-Tetrahydroxy-trans-stilbene], the IC50 [19] is given as 12000 nM, the IC50 [20] is given as 3000 nM and the “% increase (lipid production)” value ([14]; 4-40 μM (H2O)) is given as 7-41 (H2O) %. For the same compound, the “Nile Red percent increase” value ([3]; 40 μM, dose-response microplate screen) was 195%, the “% increase (lipid production)” value ([3]; 55-40 μM) was 0.3-148% and the IC50 ([12]; PKC) was 8000 nM.
In the case of `CO[C@H]1C[C@@H]2CC[C@@H](C)[C@@](O)(O2)C(=O)C(=O)N2CCCC[C@H]2C(=O)O[C@H]([C@H](C)C[C@@H]2CC[C@@H](O)[C@H](OC)C2)CC(=O)[C@H](C)/C=C(\C)[C@@H](O)[C@@H](OC)C(=O)[C@H](C)C[C@H](C)/C=C/C=C/C=C/1C` [Rapamycin, (3S,6R,7E,9R,10R,12R,14S,15E,17E,19E,21S,23S,26R,27R,34aS)-9,10,12,13,14,21,22,23,24,25,26,27,32,33,34,34a-hexadecahydro-9,27-dihydroxy-3-[(1R)-2-[(1S,3R,4R)-4-hydroxy-3-methoxycyclohexyl]-1-methylethyl]-10,21-dimethoxy-6,8,12,14,20,26-hexamethyl-23,27-epoxy-3H-pyrido[2,1-c][1,4]-oxaazacyclohentriacontine-1,5,11,28,29(4H,6H,31H)-pentone], the “Absorbance (percent increase)” value ([6]; 200 nM) is reported as −5.9%, the “Nile Red percent increase” value ([6]; 200 nM) is reported as 107.9% and the “Nile Red Fluorescence % Increase” value [6, 31] is reported as 117.3%. For the same compound, the “Nile Red Fluorescence % Increase” value [7] was 141.6% and the IC50 [21] was 0.05 nM.
In the case of `COc1ccc2c(c1)/C(=C/c1cnc[nH]1)C(=O)N2` [SU9516], the IC50 [22] is listed as 22 nM.
For `Cn1cnc2c1c(=O)[nH]c(=O)n2C` [Theobromine], the “Nile Red Fluorescence % Increase” value [6, 30] is given as 34.3% and the potency [23] is given as “(potency = 0.004 μM)”.
With `CCCCCCCCCCC[C@@H](C[C@@H]1OC(=O)[C@H]1CCCCCC)OC(=O)[C@H](CC(C)C)NC=O` [orlistat, (S)-((S)-1-((2S,3S)-3-hexyl-4-oxooxetan-2-yl)tridecan-2-yl) 2-formamido-4-methylpentanoate] the “SFAs (%)” value ([24]; Normal 0 ± 1) was 3%, the “MUFAs (%)” value ([24]; Normal 4 ± 7) was 29% and the “n3 PUFAs (%)” value ([24]; Normal 28 ± 4) was 16%. For the same compound, the “PUFAs (%)” value ([24]; Normal 96 ± 7) was 68%, the “% change in abs” value ([7]; 13 nM) was 0.83% and the “% in NR fl” value ([7]; 13 nM) was 63.67%. For the same compound, the Lipid productivity [25] was 5.1 ± 1.5 mgL^−1day^−1, the “Change in Lipids” value [25, 29] was 72% and the “Specific Growth Rate” value ([25]; mid-exponential growth phase) was 0.20 ± 0.01 day⁻¹. The IC50 [26] was 1000 nM, the “% change in abs” value ([3]; N. salina, 40 μM) was −31.92% and the “% in NR fl” value ([3]; N. salina, 40 μM) was 61.76%. The “effect on growth and lipid levels” value [27] was “positive increases in growth and lipid levels”.
For `CCCOC(=O)c1cc(O)c(O)c(O)c1` [propyl gallate, propyl 3,4,5-trihydroxybenzoate], the “increase in lipid levels” value ([1]; 40 nM) was 67%, the Lipid productivity ([1]; 40 nM) was 8.3 ± 1.7 mgL^−1day^−1 and the Lipid content ([1]; 40 nM) was 25.9 ± 11.4 % w/w. For the same compound, the “Change in Lipids” value ([1]; 40 nM) was 67%, the “Specific Growth Rate” value ([1]; 40 nM) was 0.23 ± 0.002 day⁻¹ and the IC50 [28] was 4500 nM. For the same compound, the “% Inc” value ([3]; N. salina) was 264.42%.
